Test results as given in patent US7423121B2, “Sodium channel rNav1.5a” (Neurosearch A/S, priority 2000, dated 2008).

Columns and labels:
[1] = biological target: rNav1.2a (Rattus norvegicus, UniProt P04775); experiment: Whole-cell recording of peak sodium current, inhibition by Lamotrigine, classical brain type rNav1.2a; type: cell-based; conditions: physiological saline, stimulation every 5 second, step from holding potential (e.g. −90 mV) to −10 mV
Description: (§1) Comparison of the Inhibitory Effect of Lamotrigine on the Classical Brain Type rNav1.2a and the Sodium Channel Expressed Endogenously in HiB5 Cells (rNav1.5a)
(§2) Experiments were performed as whole-cell recordings in physiological saline with stimulation of the sodium channel every 5 second by stepping from a holding potential (e.g. −90 mV) to −10 mV and monitoration of the peak current as a function of the concentration of Lamotrigine added to the recording chamber.

[2] = biological target: T1, rNav1.5a (Rattus norvegicus, UniProt P15389); experiment: Whole-cell recording of peak sodium current, inhibition by Lamotrigine, sodium channel expressed endogenously in HiB5 cells (rNav1.5a); type: cell-based
T1 construct: the Sodium Channel Expressed Endogenously in HiB5 Cells (rNav1.5a); endogenous in cells; host or cells: HiB5 (rat hippocampal stem cell line)
Description: as §1, §2

T1 sequence (P15389 1-1966 isoform P15389-2): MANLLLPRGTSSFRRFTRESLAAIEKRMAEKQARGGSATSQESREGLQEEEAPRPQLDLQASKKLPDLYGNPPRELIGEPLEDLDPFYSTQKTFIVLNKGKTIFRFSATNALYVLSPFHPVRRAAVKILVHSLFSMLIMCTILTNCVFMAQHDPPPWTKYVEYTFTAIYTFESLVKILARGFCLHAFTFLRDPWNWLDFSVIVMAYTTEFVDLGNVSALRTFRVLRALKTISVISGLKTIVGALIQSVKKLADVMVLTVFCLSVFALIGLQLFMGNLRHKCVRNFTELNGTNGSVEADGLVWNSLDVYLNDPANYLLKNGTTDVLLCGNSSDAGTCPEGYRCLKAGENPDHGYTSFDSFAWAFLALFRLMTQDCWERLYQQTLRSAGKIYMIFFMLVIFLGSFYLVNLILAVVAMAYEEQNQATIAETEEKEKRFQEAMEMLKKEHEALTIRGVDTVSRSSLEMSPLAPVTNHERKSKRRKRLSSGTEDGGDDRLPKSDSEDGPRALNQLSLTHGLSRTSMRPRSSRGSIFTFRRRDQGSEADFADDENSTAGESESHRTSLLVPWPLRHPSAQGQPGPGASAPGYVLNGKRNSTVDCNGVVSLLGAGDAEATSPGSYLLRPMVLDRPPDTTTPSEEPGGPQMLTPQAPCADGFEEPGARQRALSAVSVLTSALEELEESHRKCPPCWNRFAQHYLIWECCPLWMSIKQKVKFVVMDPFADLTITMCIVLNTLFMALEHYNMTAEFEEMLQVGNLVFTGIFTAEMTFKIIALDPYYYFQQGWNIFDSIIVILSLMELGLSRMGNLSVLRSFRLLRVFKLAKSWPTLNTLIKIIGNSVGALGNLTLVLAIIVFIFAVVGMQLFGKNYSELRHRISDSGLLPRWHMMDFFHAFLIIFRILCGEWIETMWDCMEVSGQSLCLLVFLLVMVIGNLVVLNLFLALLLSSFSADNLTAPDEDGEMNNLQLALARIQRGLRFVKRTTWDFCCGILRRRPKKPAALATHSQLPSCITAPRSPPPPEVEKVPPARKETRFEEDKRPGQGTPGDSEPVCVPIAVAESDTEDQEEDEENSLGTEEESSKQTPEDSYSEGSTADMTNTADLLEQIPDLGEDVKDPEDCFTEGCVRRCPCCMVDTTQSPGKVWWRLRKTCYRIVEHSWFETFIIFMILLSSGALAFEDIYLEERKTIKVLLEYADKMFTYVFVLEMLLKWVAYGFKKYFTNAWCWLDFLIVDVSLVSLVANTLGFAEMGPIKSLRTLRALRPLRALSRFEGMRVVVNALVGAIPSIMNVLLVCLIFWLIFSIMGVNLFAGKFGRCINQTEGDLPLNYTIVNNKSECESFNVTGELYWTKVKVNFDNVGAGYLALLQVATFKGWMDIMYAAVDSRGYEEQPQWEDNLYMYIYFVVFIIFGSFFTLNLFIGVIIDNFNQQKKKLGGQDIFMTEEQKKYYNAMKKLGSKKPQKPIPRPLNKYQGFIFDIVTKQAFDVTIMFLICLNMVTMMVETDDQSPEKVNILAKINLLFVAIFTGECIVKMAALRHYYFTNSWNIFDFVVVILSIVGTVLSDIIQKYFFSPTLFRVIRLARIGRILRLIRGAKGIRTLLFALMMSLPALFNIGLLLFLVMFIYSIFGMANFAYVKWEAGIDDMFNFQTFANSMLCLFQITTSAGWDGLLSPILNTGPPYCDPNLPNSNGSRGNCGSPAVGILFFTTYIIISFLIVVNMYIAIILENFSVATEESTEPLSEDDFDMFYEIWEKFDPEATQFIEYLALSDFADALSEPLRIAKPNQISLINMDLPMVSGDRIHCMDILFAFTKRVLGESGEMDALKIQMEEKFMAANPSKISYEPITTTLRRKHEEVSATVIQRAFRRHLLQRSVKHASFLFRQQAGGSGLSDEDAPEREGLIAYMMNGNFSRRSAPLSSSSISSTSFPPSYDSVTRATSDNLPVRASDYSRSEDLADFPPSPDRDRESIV

IC50 [1]: 500 µM
SMILES: Nc1nnc(-c2cccc(Cl)c2Cl)c(N)n1 [Lamotrigine]
IC50 ([2]; HiB5 cells, whole-cell recording, physiological saline, stimulation every 5 second, step from holding potential (e.g. −90 mV) to −10 mV): 20 µM
Potency on rNav1.5a relative to classical brain subtype BIIA ([2]; comparison with BIIA (rNav1.2a), see Example 2): more potently
